Results reported in PubChem BioAssay AID1963427 (Molecular Pharmacology Branch, DTP, NCI, 2024).

Test system: 317291-083-R-J1-PDC complex spheroid growth
Assay: Anticancer human tumor 317291-083-R-J1-PDC patient-derived soft tissue sarcoma cell line growth inhibition [Asc]
Conditions: for IC50: curve of first compound; for viability, T/C: stronger effect = lower value; active = viability on the fitted dose curve at most 10% of control; inactive = the rest
Method in brief: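 Complex solid-tumor spheroids incorporating human endothelial and mesenchymal stem cells received single agents or combinations over half-log dilution ranges anchored to clinical Cmax.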
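Note: compound exposure lasted seven days after spheroids formed for three days.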
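Throughout, for viability, T/C: 100% = DMSO vehicle control wells.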

Cc1nc(N2CCC3(CC2)COC(C)C3N)c(CO)nc1Sc1ccnc(N)c1Cl (configuration not stated) + CCN1C(C(=O)NC23CCC(C(=O)O)(CC2)CC3)C(c2cccc(Cl)c2F)C2(C(=O)Nc3cc(Cl)ccc32)C12CCCCC2
inactive: viability, T/C (second compound 0.00949 µM, first compound 0.00949 µM) 103% | viability, T/C (second compound 0.00949 µM, first compound 0.03 µM) 96% | viability, T/C (second compound 0.00949 µM, first compound 0.0949 µM) 94.9% | viability, T/C (second compound 0.00949 µM, first compound 0.3 µM) 74.2% | viability, T/C (second compound 0.00949 µM, first compound 0.949 µM) 95.7% | viability, T/C (second compound 0.00949 µM, first compound 3 µM) 53.6% | viability, T/C (second compound 0.03 µM, first compound 0.00949 µM) 108% | viability, T/C (second compound 0.03 µM, first compound 0.03 µM) 107% | viability, T/C (second compound 0.03 µM, first compound 0.0949 µM) 96.7% | viability, T/C (second compound 0.03 µM, first compound 0.3 µM) 90.8% | viability, T/C (second compound 0.03 µM, first compound 0.949 µM) 69% | viability, T/C (second compound 0.03 µM, first compound 3 µM) 49% | viability, T/C (second compound 0.0949 µM, first compound 0.00949 µM) 104% | viability, T/C (second compound 0.0949 µM, first compound 0.03 µM) 116% | viability, T/C (second compound 0.0949 µM, first compound 0.0949 µM) 92.5% | viability, T/C (second compound 0.0949 µM, first compound 0.3 µM) 78.9% | viability, T/C (second compound 0.0949 µM, first compound 0.949 µM) 70.8% | viability, T/C (second compound 0.0949 µM, first compound 3 µM) 69.4% | viability, T/C (second compound 0.3 µM, first compound 0.00949 µM) 120% | viability, T/C (second compound 0.3 µM, first compound 0.03 µM) 106% | viability, T/C (second compound 0.3 µM, first compound 0.0949 µM) 95.5% | viability, T/C (second compound 0.3 µM, first compound 0.3 µM) 97.9% | viability, T/C (second compound 0.3 µM, first compound 0.949 µM) 73.7% | viability, T/C (second compound 0.3 µM, first compound 3 µM) 56.1% | viability, T/C (second compound 0.949 µM, first compound 0.00949 µM) 86.1% | viability, T/C (second compound 0.949 µM, first compound 0.03 µM) 113% | viability, T/C (second compound 0.949 µM, first compound 0.0949 µM) 93.4% | viability, T/C (second compound 0.949 µM, first compound 0.3 µM) 84.8% | viability, T/C (second compound 0.949 µM, first compound 0.949 µM) 75.7% | viability, T/C (second compound 0.949 µM, first compound 3 µM) 59.2% | viability, T/C (second compound 3 µM, first compound 0.00949 µM) 82.2% | viability, T/C (second compound 3 µM, first compound 0.03 µM) 81.7% | viability, T/C (second compound 3 µM, first compound 0.0949 µM) 82.8% | viability, T/C (second compound 3 µM, first compound 0.3 µM) 82.3% | viability, T/C (second compound 3 µM, first compound 0.949 µM) 66.7% | viability, T/C (second compound 3 µM, first compound 3 µM) 48.5%
2830 nM: IC50 (second compound 0.03 µM)
2740 nM: IC50 (second compound 3 µM)
> 3000 nM: IC50 (second compound 0.00949 µM) | IC50 (second compound 0.0949 µM) | IC50 (second compound 0.3 µM) | IC50 (second compound 0.949 µM)
